# Reference: patent US20260207625A1, “New medical use of 3a-ethynyl-3ß hydroxyandrostan-17-one oxime” (priority 2022, published 2026)
# Columns and labels:
# astrocytes = assay: Astrocytes activation in striatum (GFAP stained area); assay type: in vivo, rat; details: 6-OHDA rats treated with golexanolone; 5 weeks after surgery; mean±SEM; untreated 6-OHDA rats 123±10%
# Description: (§1) The unilaterally 6-hydroxydopamine (6-OHDA) rat model according to Carvalho M et al. in Molecular Neurodegeneration 2013, 8:14; pp. 1-11, was used.
# (§2) Under isoflurane (5% induction and then 2%) anesthesia the animals were placed on a stereotaxic frame with non-traumatic ear bars (Stoelting, USA), and unilaterally injected (left hemisphere) using an 30-gauge needle Hamilton syringe (Hamilton Company, Switzerland), with either vehicle (sham group, n=20) or 6-OHDA hydrochloride (Sigma, USA) (6-OHDA group, n=40) directly into the medial forebrain bundle (coordinates related to Bregma, AP=−4.4 mm; ML=−1.0 mm; DV=−7.8 mm; according to (Paxinos G, Watson C. The Rat Brain in Stereotaxic Coordinates. 4. San Diego, USA: Academic; 1998).
# (§3) At a rate of 1 μl/min, sham animals received 2 μl of 0.2 mg/ml ascorbic acid in 0.9% NaCl, and 6-OHDA animals were injected with 2 μl 6-OHDA hydrochloride (4 μg/μl) with 0.2 mg/ml ascorbic acid in 0.9% NaCl. After injection the syringe was left in place for 10 minutes to allow diffusion.
# (§4) Rats positive in the apomorphine-induced rotation test (20 animals) were included in the study, together with 20 sham-operated controls. […]
# Astrocytes activation was assessed at 5 weeks after surgery, by measuring the total GFAP stained area with Image J software. Results were expressed as percentage of shams.
# Astrocyte activation in the striatum was analysed by immunohistochemistry. […]
# microglia = assay: Microglia activation in striatum (perimeter of Iba1 stained cells); assay type: in vivo, rat; details: 6-OHDA rats treated with golexanolone; 5 weeks after surgery; mean±SEM; untreated 6-OHDA 217±8, shams 254±1
# Description: as §1, §2, §3, §4
# In this Parkinson's Disease test model, microglia activation was analyzed by measuring the perimeter of individual Iba1 stained cells with IpWin2 software at 5 weeks after surgery.
# α-synuclein = α-synuclein content in striatum by Western blot; assay type: in vivo, rat; details: 6-OHDA rats treated with golexanolone, 10 weeks after surgery, mean±SEM, untreated 6-OHDA rats 195±35%
# Description: as §1, §2
# (§5) At a rate of 1 μl/min, sham animals received 2 μl of 0.2 mg/ml ascorbic acid in 0.9% NaCl, and 6-OHDA animals were injected with 2 μl 6-OHDA hydrochloride (4 μg/μl) with 0.2 mg/ml ascorbic acid in 0.9% NaCl. After injection the syringe was left in place for 10 minutes to allow diffusion. […]
# α-synuclein content was analyzed by Western blot. […] Membranes were scanned using the ScanJet 5300C (Hewlett-Packard, Amsterdam, the Netherlands) and band intensities were quantified using Alpha Imager 2200 version 3.1.3 (Alpha Innotech Corporation). Results were expressed as percentage of shams. […]
# [1] = system: tyrosine hydroxylase (TH); assay: Tyrosine hydroxylase content in striatum, immunohistochemistry; assay type: in vivo, rat; details: 6-OHDA rats treated with golexanolone; 5 weeks after surgery; mean±SEM; untreated 6-OHDA rats 36±4%
# Description: as §1, §2, §3
# (§6) Rats positive in the apomorphine-induced rotation test (20 animals) were included in the study, together with 20 sham-operated controls. Golexanolone treatment (50 mg/kg, daily, intragastric) and vehicle treatment as negative controls started 4 weeks after surgery. […]
# Tyroxine hydroxylase (TH) was analysed according to Heo et al (Curr Biol. 2020 Jan. 20; 30(2): pp. 276-291). […]
# 6-OHDA rat model [2] = assay: Motor coordination, Motorater test (horizontal ladder); assay type: in vivo; details: 6-OHDA rats; 50 mg/kg daily intragastric; 7 weeks after surgery, 3 weeks of treatment; versus control rats
# Description: as §1, §2
# At a rate of 1 μl/min, sham animals received 2 μl of 0.2 mg/ml ascorbic acid in 0.9% NaCl, and 6-OHDA animals were injected with 2 μl 6-OHDA hydrochloride (4 μg/μl) with 0.2 mg/ml ascorbic acid in 0.9% NaCl. […]
# Motor coordination was tested with the Motorater test (Zörner B, Filli L, Starkey M L, Gonzenbach R, Kasper H, Röthlisberger M, et al. Profiling locomotor recovery: comprehensive quantification of impairments after CNS damage in rodents. Nat Methods. 2010; 7(9): pp. 701-708). […] The performance is recorded from the bottom by a mobile high-speed camera at 200 frames per second. Failures to set a foot on the ladder stairs are quantified.
# 6-OHDA rat model [3] = assay: Sucrose preference test (anhedonia, depression); assay type: in vivo; details: 6-OHDA rats; 50 mg/kg daily intragastric; 7 weeks after surgery, 3 weeks of treatment
# Description: as §1, §2, §3, §6
# 6-OHDA rat model [4] = assay: CatWalk test, locomotor gait swing; assay type: in vivo; details: 6-OHDA rats; 50 mg/kg daily intragastric; 7 weeks after surgery, 3 weeks of treatment
# Description: as §1, §2, §5
# (§7) The CatWalk™ system measures various aspects of locomotor pattern. Based on the position, pressure, and surface area of each footfall, multiple parameters are calculated. […] Paw print designations were assigned and data analysed using the CatWalk analysis software (v 7.1)
# Locomotor gait swing was evaluated in the catwalk test. […]
# 6-OHDA rat model [5] = assay: CatWalk test, initial dual stance; assay type: in vivo; details: 6-OHDA rats; 50 mg/kg daily intragastric
# Description: as §1, §2, §5, §7
# Initial dual stance was evaluated in the catwalk test. […]
# 6-OHDA rat model [6] = assay: Object location memory test (OLM); assay type: in vivo; details: 6-OHDA rats; 50 mg/kg daily intragastric; 6 weeks after surgery, 2 weeks of treatment
# Description: as §1, §2, §5
# The object location memory test (OLM) evaluates spatial location memory. […] The time exploring each object is analyzed. The discrimination ratio is calculated: (Time exploring new object location-time exploring old located object)/total time exploring the objects. […]
# [7] = system: 6-OHDA rats treated with L-DOPA; assay: L-dopa Induced Dyskinesia (LID) rat model, Abnormal Involuntary Movements (AIMs); assay type: in vivo; details: 6 weeks of daily L-DOPA, 3 weeks of oral golexanolone, compared to group receiving only L-DOPA
# Protocol: The ability of golexanolone to reduce or eliminate L-dopa Induced Dyskinesia (LID) was analyzed. This test is described in FIG. 14.
# L-dopa Induced Dyskinesia (LID) was induced in a rat model described by Loiodice et al in ACS Chem Neurosci. 2018 Apr. 18; 9(4): pp. 762-772. Abnormal Involuntary Movements (AIM) was measured.
# Rats positive in the apomorphine test received daily L-DOPA treatment starting 4 weeks after surgery and oral golexanolone treatment starting 7 weeks after surgery.
# The experiment included the following groups: • 1) 6-OHDA rats treated with L-DOPA and receiving vehicle; • 2) 6-OHDA rats treated with golexanolone and treated with L-DOPA (n=12 per group). The appearance of a variety of AIMs were analyzed after 6 weeks of daily L-DOPA injections, and 3 weeks of golexanolone treatment, as described in Lundblad M et al; Eur J Neurosci. 2002 January; 15(1): pp. 120-132, and Loiodice et al in ACS Chem Neurosci. 2018 Apr. 18; 9(4): pp. 762-772.
# Axial AIMs, limb AIMs, orolingual AIMs and locomotive AIMs were evaluated. One hour after the daily dose of golexanolone, L-DOPA was injected and AIMs were analyzed every 20 minutes for a total of three hours, as shown in FIG. 15.
# As shown in this graph, there were less AIMs in the group of animals treated with golexanolone compared to the group who received only L-DOPA.
# 6-OHDA rat model [8] = assay: Anxiety, open arena test; assay type: in vivo; details: 6-OHDA rats; 50 mg/kg daily intragastric; 5 weeks after surgery, 10 days of treatment
# Description: as §1, §2, §3, §4
# Anxiety was evaluated in an open arena during five minutes by measuring the time that the rat remains in the central zone, instead of close to the walls of the box, where the rats feel safer. […]
# 6-OHDA rat model [9] = assay: Fatigue in treadmill test, 6-OHDA rats; assay type: in vivo; details: golexanolone 50 mg/kg daily intragastric, 5 weeks after surgery, 9 days of treatment
# Description: A 6-OHDA rat model as described by Heo et al. (Curr Biol. 2020 Jan. 20; 30(2): pp. 276-291) and by Carvalho et al. (Mol. Neurodegener. 2013, 8: 14: Behavioral characterization of the 6-hydroxidopamine model of Parkinson's disease and pharmacological rescuing of non-motor deficits) is used.
# as §1
# Eight week old Wistar-Han male rats (56 animals) (Charles River, Barcelona) were housed, two per cage, under standard laboratory conditions: 12 hour light-dark cycle, 22° C. room temperature, 55% relative humidity, food and water available ad libitum. All manipulations were done in accordance with the local regulations (European Union Directive 2010/63/EU). […]
# Fatigue was evaluated in a treadmill consisting of a motorized conveyor belt divided into two parallel sectors, each with an electrified grid. […] The value recorded during the last 15 minutes of each test (and the times it falls on the grid) is recorded. […]
smiles,measurement,setting,value
"C#C[C@]1(O)CC[C@@]2(C)C(CC[C@@H]3[C@@H]2CC[C@]2(C)/C(=N/O)CC[C@@H]32)C1 (stereo partly drawn) [golexanolone, 3α-ethynyl-3β-hydroxyandrostan-17-one oxime]",Astrocyte activation: total GFAP stained area in the injured striatum,astrocytes,92±4 % of shams
same,Microglia activation: perimeter of individual Iba1 stained cells in the injured striatum,microglia,250±8 μm
same,Level of α-synuclein in the injured striatum,α-synuclein,99±9 % of shams
same,TH staining in the striatum,[1],62±11 % of shams
same,Errors crossing the horizontal ladder (failures to set a foot on the ladder stairs),6-OHDA rat model [2],made less errors
same,"Depression (anhedonia, sucrose preference)",6-OHDA rat model [3],improves depression
same,Locomotor gait swing in the CatWalk test,6-OHDA rat model [4],improved swing
same,Initial dual stance in the CatWalk test,6-OHDA rat model [5],improves initial dual stance
same,Object location memory (discrimination ratio),6-OHDA rat model [6],improves object location memory
same,"All AIMs (axial, limb, orolingual and locomotive) during three hours",[7],less AIMs
same,Anxiety (time in the central zone of open arena),6-OHDA rat model [8],improves anxiety
same,"Fatigue (time in the treadmill, time in shock)",6-OHDA rat model [9],improved fatigue
